From patent US6440451B1, “Use of crataegus formulations for prophylaxis and treatment of neoplastic diseases” (Nativia Health Products GmbH, priority 1998, dated 2002)

Columns and labels:
[1] = system: human neuroblastoma and breast carcinoma cells; conditions: Fotsis et al., Cancer Research 57 (1997); cited from earlier work
[2] = system: human fibroblasts, keratinocytes and endothelial cells; conditions: Fotsis et al., Cancer Research 57 (1997); cited from earlier work
HT-29 = assay: MTT assay, HT-29 colon carcinoma cells; assay type: cell-based, human; conditions: 72 hours
Excerpt: (§1) In the context of the present invention, five human tumour cell lines (four carcinoma cell lines, one sarcoma cell line) and one animal carcinoma cell line (cf. tab. 2) were investigated as examples. All the cell lines were kept in permanent cell culture in cell culture bottles with 75 cm^2 base area. They were subjected to passage once a week, and the medium was changed twice a week. At the start of the experiment (day 0), the cells were sown in cell culture plates with 96 depressions (96 well plates) in 100 μl medium per well (=0.32 cm^2) in each case, with the density shown in table 2. On days 1 and 4, the medium of all the cells was changed, and after the change of medium on day 4, incubation with the active substances (Crataegus formulations, Gentiana, superoxide dismutase, 5-fluorouracil and methotrexate; see below) or the solvents as controls started immediately. The effects of the active substances were measured on day 7 (that is to say after incubation for 72 hours) with two different methods, the so-called MTT assay and the SRB assay (see tab. 2).
(§2) MTT assay: The MTT assay (T. Mossman, J. Immunoll. Methods 65 (1983) 55-63) is based on measurement of the metabolic activity of living cells. The substance 3-(4,5-dimethylthiazol-2-yl)-2,5-diphenyltetrazolium bromide (MTT), which the cells reduce intracellularly to the water-insoluble dyestuff formazan, is made available to the cells. This reduction takes place only in metabolically active cells, so that this assay detects exclusively living cells. At the measurement time, in each case 100 μl MTT solution (4 mg/ml PBS, phosphate buffered saline) are added to the cells in 100 μl medium. Incubation for two hours at 37° C. then takes place. Thereafter, the medium is sucked off, so that the dyed living cells adhering to the base of the culture flask remain. These and the dyestuff are dissolved with 100 μl DMSO (dimethylsulphoxide) in the course of 5 minutes, with vigorous shaking. The extinction is then determined photometrically at 570 nm. Its linearity in the range used here, and also its correlation to the number of living cells (counted under the microscope) were detected in preliminary experiments. […] For the evaluation, ΔE was determined by subtraction of the extinction in the controls with PBS from the measurement values with MTT.
(§3) The data shown in table 3 are the means of three individual measurements. ΔE measured under the action of the various test substances has additionally been shown in percent of ΔE of the particular solvent controls. […] At the time of addition of the test substance (day 4), the cells had already reached approx. 50% of the density, and therefore also 50% of the ΔE to be measured.

CMT-93 = assay: SRB assay, CMT-93 rectum carcinoma cells; assay type: cell-based, mouse; conditions: 72 hours
Excerpt: as §1
SRB assay: The SRB assay (P. Skehan et al., J. Natl. Cancer Inst. 82 (1990) 1107-1112) is based on binding of the dyestuff sulphorhodamine B (SRB) to basic proteins. The principle specifies fixing, with the aid of trichloroacetic acid, the tumour cells adhering to the culture vessel base and thereafter dyeing their protein. This dyeing is then also determined photometrically. Non-living cells are distinguished in that they first detach themselves from the cell culture base and then dissolve in the culture medium. This method therefore also measures only the living cells in a cell culture. The cells growing in 100 μl medium are first fixed with 25 μl 50% cold trichloroacetic acid at 4° C. After incubation for one hour at 4° C., all the non-fixed constituents are removed and those which remain are rinsed five times with water. After drying in air, 200 μl 0.4% sulphorhodamine B solution in 1% acetic acid or, in the photometric controls, only acetic acid,. are added. […] The extinction was measured at 570 nm or, if the OD (optical density) lay outside the linear range, at 492 nm (for CMT-93 cells). For the evalution, ΔE was determined by subtraction of the extinction in the controls with acetic acid from the measurement values with SRB.
as §3

SKMEL-2 = assay: SRB assay, SK-MEL-2 malignant melanoma cells; assay type: cell-based, human; conditions: for % control / dE mean: SKMEL-2, 72 hours
Excerpt: as §1
SRB assay: The SRB assay (P. Skehan et al., J. Natl. Cancer Inst. 82 (1990) 1107-1112) is based on binding of the dyestuff sulphorhodamine B (SRB) to basic proteins. The principle specifies fixing, with the aid of trichloroacetic acid, the tumour cells adhering to the culture vessel base and thereafter dyeing their protein. This dyeing is then also determined photometrically. Non-living cells are distinguished in that they first detach themselves from the cell culture base and then dissolve in the culture medium. This method therefore also measures only the living cells in a cell culture. The cells growing in 100 μl medium are first fixed with 25 μl 50% cold trichloroacetic acid at 4° C. After incubation for one hour at 4° C., all the non-fixed constituents are removed and those which remain are rinsed five times with water. After drying in air, 200 μl 0.4% sulphorhodamine B solution in 1% acetic acid or, in the photometric controls, only acetic acid,. are added. After incubation for 30 minutes at room temperature, the dyestuff solution is poured out and the culture is rinsed four times with 1% acetic acid. After removal of the rinsing solution and drying, the dyestuff adhering to the basic proteins is dissolved in 100 μl 10 mM tris-base (tris(hydroxymethyl)aminomethane) in the course of 5 minutes. The extinction was measured at 570 nm or, if the OD (optical density) lay outside the linear range, at 492 nm (for CMT-93 cells). For the evalution, ΔE was determined by subtraction of the extinction in the controls with acetic acid from the measurement values with SRB.
The data shown in table 3 are the means of three individual measurements. ΔE measured under the action of the various test substances has additionally been shown in percent of ΔE of the particular solvent controls. The control cells, which received no test substances (Crataegus formulations) but only medium or solvent, reached 100% of their density (number) as defined at the measurement time (day 7). At the time of addition of the test substance (day 4), the cells had already reached approx. 50% of the density, and therefore also 50% of the ΔE to be measured.

Caki-1 = assay: MTT assay, Caki-1 kidney carcinoma cells; assay type: cell-based, human; conditions: 72 hours
Excerpt: as §1, §2, §3

SAOS-2 = assay: MTT assay, SAOS-2 osteosarcoma cells; assay type: cell-based, human; conditions: 72 hours
Excerpt: as §1, §2, §3

U373MG = assay: SRB assay, U373MG glioblastoma cells; assay type: cell-based, human
Excerpt: In the context of the present invention, five human tumour cell lines (four carcinoma cell lines, one sarcoma cell line) and one animal carcinoma cell line (cf. tab. 2) were investigated as examples. All the cell lines were kept in permanent cell culture in cell culture bottles with 75 cm^2 base area. They were subjected to passage once a week, and the medium was changed twice a week. At the start of the experiment (day 0), the cells were sown in cell culture plates with 96 depressions (96 well plates) in 100 μl medium per well (=0.32 cm^2) in each case, with the density shown in table 2. […] [table] SRB assay: The SRB assay (P. Skehan et al., J. Natl. Cancer Inst. 82 (1990) 1107-1112) is based on binding of the dyestuff sulphorhodamine B (SRB) to basic proteins. The principle specifies fixing, with the aid of trichloroacetic acid, the tumour cells adhering to the culture vessel base and thereafter dyeing their protein. This dyeing is then also determined photometrically. Non-living cells are distinguished in that they first detach themselves from the cell culture base and then dissolve in the culture medium. This method therefore also measures only the living cells in a cell culture. The cells growing in 100 μl medium are first fixed with 25 μl 50% cold trichloroacetic acid at 4° C. After incubation for one hour at 4° C., all the non-fixed constituents are removed and those which remain are rinsed five times with water. After drying in air, 200 μl 0.4% sulphorhodamine B solution in 1% acetic acid or, in the photometric controls, only acetic acid,. are added. […] For the evalution, ΔE was determined by subtraction of the extinction in the controls with acetic acid from the measurement values with SRB. The data shown in table 3 are the means of three individual measurements. ΔE measured under the action of the various test substances has additionally been shown in percent of ΔE of the particular solvent controls. […] At the time of addition of the test substance (day 4), the cells had already reached approx. 50% of the density, and therefore also 50% of the ΔE to be measured.

[3] = system: tumour cell lines investigated; assay: MTT/SRB assays, statements on all tumour cell lines investigated; assay type: cell-based; conditions: table 3
Excerpt: as §1, with “On days 1 and 4, the medium of all the cells was changed, and after the change of medium on day 4, incubation with the active substances (Crataegus formulations, Gentiana, superoxide dismutase, 5-fluorouracil and methotrexate; see below) or the solvents as controls started immediately.” left out
MTT assay: The MTT assay (T. Mossman, J. Immunoll. Methods 65 (1983) 55-63) is based on measurement of the metabolic activity of living cells. […] The extinction is then determined photometrically at 570 nm. Its linearity in the range used here, and also its correlation to the number of living cells (counted under the microscope) were detected in preliminary experiments. […] For the evaluation, ΔE was determined by subtraction of the extinction in the controls with PBS from the measurement values with MTT. […]

[4] = U373MG, medium, 45 μg/ml, 72 hours
[5] = solvent H2O 0.10% final conc, 1 μg/ml

In the case of O=c1cc(-c2ccc(O)c(O)c2)oc2cc(O[C@@H]3O[C@H](CO)[C@@H](O)[C@H](O)[C@H]3O)cc(O)c12 [luteolin-7-glucoside], the “effect on proliferation of human neuroblastoma and breast carcinoma cells” value [1] is listed as “inhibiting effect” and the “effect on proliferation of human fibroblasts, keratinocytes and endothelial cells” value [2] is listed as “inhibits the proliferation”.
With O=c1[nH]cc(F)c(=O)[nH]1 [5-Fluorouracil] the “% control” value (HT-29; medium, 25 μg/ml) was 53%, the dE mean (HT-29; medium, 25 μg/ml) was 0.973 and the “% control” value (CMT-93; medium, 25 μg/ml) was 63%. The dE mean (CMT-93; medium, 25 μg/ml) was 0.191.
For O=c1c(O)c(-c2ccc(O)c(O)c2)oc2cc(O)cc(O)c12 [quercetin], the “effect on proliferation of human neuroblastoma and breast carcinoma cells” value [1] is listed as “inhibiting effect” and the “effect on proliferation of human fibroblasts, keratinocytes and endothelial cells” value [2] is listed as “inhibits the proliferation”.
With CN(Cc1cnc2nc(N)nc(N)c2n1)c1ccc(C(=O)N[C@@H](CCC(=O)O)C(=O)O)cc1 [Methotrexate] the “% control” value (SKMEL-2; medium, 45 μg/ml) was 119%, the dE mean (SKMEL-2; medium, 45 μg/ml) was 2.429 and the “cytostatic/cytotoxic action on SKMEL-2 cells, in words” value (SKMEL-2; table 3) was “resistance”. The “% control” value (Caki-1; medium, 45 μg/ml) was 47%, the dE mean (Caki-1; medium, 45 μg/ml) was 0.679 and the “% control” value (SAOS-2; medium, 45 μg/ml) was 41%. The dE mean (SAOS-2; medium, 45 μg/ml) was 0.259, the “% control” value (U373MG; [4]) was 135% and the dE mean (U373MG; [4]) was 1.449. For the same compound, the “cytostatic/cytotoxic action on U373MG cells, in words” value (U373MG; table 3) was “resistance”.
In the case of “Superoxide dismutase: Superoxide dismutase from bovine erythrocytes, superoxide scavenger comparison”, the “% control” value (SKMEL-2; [5]) is reported as 94%, the dE mean (SKMEL-2; [5]) is reported as 1.340 and the “% control” value (HT-29; [5]) is reported as 90%. The dE mean (HT-29; [5]) was 1.725, the “cytostatic/cytotoxic action on the cell lines investigated, in words” value [3] was “no cytostatic or cytotoxic effects” and the “% control” value (CMT-93; [5]) was 92%. The dE mean (CMT-93; [5]) was 0.326, the “% control” value (Caki-1; [5]) was 97% and the dE mean (Caki-1; [5]) was 1.442. The “% control” value (SAOS-2; [5]) was 98% and the dE mean (SAOS-2; [5]) was 0.564.
